Measured values as given in patent US9783576B2, “Compositions and methods for targeted endometriosis treatment” (Sanford-Burnham Medical Research Institute, priority 2013, dated 2017).
“Also recorded” adds a separate entry of the source. Like-named read-outs stand apart in the source and are kept apart here. Where no end group is shown, it is not given here. The star is where a group is joined. FITC = O=C1OC2(c3ccc(O)cc3Oc3cc(O)ccc32)c2ccc(NC(=S)*)cc21

Legend:
[1] = tested on: A431 cells; assay: Fluorescence microscopy binding to control cells; type: cell-based, human
Experimental: (§1) Ishikawa cells and A431 cells were grown on glass coverslips in 3.5 cm tissue culture plates. Each phage clone including z13 was added to these cells, incubated at 4° C. for 15 min, washed with cold PBS, and fixed with 1% paraformaldehyde (PFA) in PBS. Phage was detected using rabbit anti-T7 antibody and FITC-conjugated goat anti-rabbit IgG antibody. After washing three times with PBS, cells were fixed with 1% paraformaldehyde in PBS and inspected under a Zeiss Axioplan fluorescence microscope. Ishikawa cells grown on glass coverslips were incubated in medium containing FITC-z13 peptide (1 μg/ml) at 37° C. for 15 min. After washing with PBS, cells were fixed with 1% PFA in PBS, and inspected under the fluorescence microscope. Qdot-encapsulated and C16-z13 peptide coated liposomes were prepared as described above. Ishikawa cells were incubated with these liposomes at 37° C. for 15 min, washed with PBS, fixed with 1% PFA, and inspected under the fluorescence microscope. Qdot605-conjugated peptide, Qdot-cys-z13, or control peptide, Qdot-cys-m2, was added to the culture at 100 nM and left at 37° C. for 15 min.
(§2) Ishikawa cells and A431 cells were grown on glass coverslips in 3.5-cm tissue culture plates. Ishikawa cells grown on glass coverslips were incubated in medium containing FITC-z13 peptide (1 μg/ml) at 37° C. for 15 min. After washes with PBS, cells were fixed with 1% PFA in PBS and inspected under a fluorescence microscope. Qdot-cys-z13 was prepared by conjugating cys-z13 to Qdot nanoparticles (Qdot antibody conjugation kit, Quantum Dot, Hayward, Calif.) in accordance with the manufacturer's protocol. Cells were inspected under a Zeiss Axioplan fluorescence microscope.

[2] = biological target: T1, CNGB3 (Homo sapiens, UniProt Q9NQW8, C234W); assay: FITC-z13 binding to HeLa cells transfected with CNGB3-MYC; type: cell-based; conditions: control empty vector
T1 construct: tissue Folio Biosciences; Imgenex; host or cells: human endometriosis tissue sections, normal uterine endometrium and normal tissue microarrays, peritoneum
T1 sequence (Q9NQW8 1-809 C234W): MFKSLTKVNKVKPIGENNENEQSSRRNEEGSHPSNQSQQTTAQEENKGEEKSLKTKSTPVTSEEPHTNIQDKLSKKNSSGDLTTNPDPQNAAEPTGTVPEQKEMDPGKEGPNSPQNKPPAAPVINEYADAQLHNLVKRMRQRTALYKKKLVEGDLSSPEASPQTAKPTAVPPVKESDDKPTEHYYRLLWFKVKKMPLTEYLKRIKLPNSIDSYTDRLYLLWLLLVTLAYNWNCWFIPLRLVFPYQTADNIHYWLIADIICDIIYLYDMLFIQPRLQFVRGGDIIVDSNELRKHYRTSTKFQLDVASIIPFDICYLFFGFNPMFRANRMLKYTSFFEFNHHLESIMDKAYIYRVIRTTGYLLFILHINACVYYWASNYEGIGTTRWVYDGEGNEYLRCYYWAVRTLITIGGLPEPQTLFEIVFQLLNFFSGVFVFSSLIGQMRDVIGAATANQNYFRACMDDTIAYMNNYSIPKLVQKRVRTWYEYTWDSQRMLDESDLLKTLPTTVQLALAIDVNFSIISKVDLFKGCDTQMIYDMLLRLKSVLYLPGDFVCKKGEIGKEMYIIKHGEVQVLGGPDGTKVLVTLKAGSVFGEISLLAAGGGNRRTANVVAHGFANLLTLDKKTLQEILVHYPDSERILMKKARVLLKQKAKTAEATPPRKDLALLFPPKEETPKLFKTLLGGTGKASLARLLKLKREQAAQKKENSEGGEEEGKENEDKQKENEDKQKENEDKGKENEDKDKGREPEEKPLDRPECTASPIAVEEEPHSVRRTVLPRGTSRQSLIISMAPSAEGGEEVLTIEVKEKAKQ
Excerpt: (§3) To assess binding of FITC-z13 to CNGB3, HeLa cells were transfected with a mammalian expression vector encoding a CNGB3-MYC fusion protein or with control empty vector. Fluorescence micrographs were made of HeLa cells transfected by control vector or with an expression vector encoding CNGB3-MYC.
(§4) CNGB3 cDNA was kindly provided by Dr. Hisao Ueyama, Department of Ophthalomology, Shiga University of Medical Science, Japan. cDNA encoding full-length CNGB3 was excised by HindIII and BsrGI and ligated into the HindIII and Asp718I sites of pcDNA3.1/myc-His-B vector (Invitrogen). HeLa cells were transfected with this vector, and expression of CNGB3-MYC/His fusion protein was determined by immunohistochemistry with an anti-MYC antibody and the anti-CNGB3 antibody (clone 3B2) described above. To test binding of z13 peptide to CNGB3, FITC-z13 was added (5 μg/ml) to the medium of HeLa cells transfected by the above-described vector and incubated at 37° C. for 15 min. Cells were washed with PBS, fixed with 4% PFA in PBS, and observed under a fluorescence microscope.

[3] = biological target: T2, CNGB3 (Homo sapiens, UniProt Q9NQW8); assay: as above; type: cell-based; conditions: 5 μg/ml, 37° C. 15 min
T2 construct: tissue Folio Biosciences; Imgenex; host or cells: human endometriosis tissue sections, normal uterine endometrium and normal tissue microarrays, peritoneum
T2 sequence (Q9NQW8 1-809 C234W): T1 sequence (Q9NQW8 1-809 C234W)
Excerpt: as §3, §4

[4] = tested on: Ishikawa cells; assay: Fluorescence microscopy binding to live cells; type: cell-based, human; conditions: for fluorescence/binding of Qdot-conjugated peptide on Ishikawa cells: 100 nM
Experimental: as §1, §2

[5] = tested on: CNGB3-MYC expressing HEK293T cells; assay: Endosome escape of biotin-z13 in CNGB3-MYC expressing HEK293T cells; type: cell-based; conditions: 37° C. 30 min
Excerpt: (§5) It was realized that this lack of effect could be due to the fact that receptor-bound dKLAK-z13 localizes to the luminal side of endosomes, a prediction supported by the endosome-like pattern of fluorescent z13. To release dKLAK-z13 from the endosomes to the cytoplasm, an endosome-escaping 18-mer peptide HLAHLAHHLAHLAHHLAH (SEQ ID NO:38; here abbreviated as HLAH) was devised by replacing lysines in KLAKLAK (SEQ ID NO:39) with histidines, to provide histidine-rich sequences capable of destabilizing endosome membranes at acidic pH (Midoux et al., 2002; Pichon et al., 2001). […] For this experiment, biotin-z13 was bound to CNGB3-MYC expressing HEK293T cells at 37° C. for 30 min with or without HLAH-z13. Cells were stained by Alexa 488-conjugated avidin followed by DAPI nuclear staining.

[6] = tested on: CNGB3-expressing HEK293T cells; assay: Cell viability assay (ATP, CellTiter Glo) in CNGB3-expressing cells; type: cell-based; conditions: 37° C. 1 hour, single peptide
Experimental: FIG. 5 is a graph of luminescence of live cells cultured in medium containing peptides on CNGB3-MYC expressing A431 cells versus peptide concentration for the four different peptide combinations: z13, dKLAK-z13, HLAH-z13, or dKLAK-z13 plus HLAH-z13. Cells were cultured in medium containing each peptide at the indicated concentrations at 37° C. for 1 hour. ATP levels were measured by CellTiter Glo (Promega). Lines represent, in order from top to bottom: z13, dKLAK-z13, HLAH-z13, and dKLAK-z13 plus HLAH-z13.
Cytotoxic activity of dKLAK-z13 was then assessed in the presence of HLAH-z13 using a cell viability assay (FIG. 5). When CNGB3-expressing HEK293T cells were cultured in medium containing z13, dKLAK-z13, or HLAH-z13 at 37° C. for 1 hour, cell viability was not affected except at high concentration of dKLAK-z13 (at 200 μg/ml) or HLAH-z13 (at 50 μg/ml). […] For this experiment, cells were cultured at 37° C. for 20 hours in medium containing no peptide; z13 (100 μg/ml); dKLAK (100 μg/ml); dKLAK-z13 (100 μg/ml); HLAH-z13 (25 μg/ml); or dKLAK-z13 (100 μg/ml) plus HLAH-z13 (25 μg/ml).

[7] = tested on: mammalian cell; conditions: not coupled to a targeting domain; cited from earlier work
[8] = tested on: CNGB3-Myc cDNA-transfected HEK293T cells; assay: Apoptosis (TUNEL) of CNGB3-Myc transfected HEK293T cells; type: cell-based; conditions: peptide alone added to culture medium
Excerpt: as §5
Each peptide was dissolved in dimethylsulfoxide at 100 μg/μl. Each peptide was added to the medium of cells, and the cells were cultured at 37° C. for 20 hours. Apoptosis of CNGB3-Myc cDNA-transfected HEK293T cells was determined by TUNEL assay using the ApopTag immunoperoxidase kit (Chemicon, Temecula, Calif.).

[9] = tested on: CNGB3-positive A431 cells; assay: Cell viability assay measuring ATP with KLA-HLA hybrid z13 peptides; type: cell-based, human; conditions: 37° C. 6 hours, ATP by CellTiter Glo (FIG. 8)
Experimental: FIG. 8 is a graph of luminescence versus peptide concentration in μg/ml. […] Cells were cultured in medium containing each peptide at indicated concentrations at 37° C. for 6 hours. ATP levels were measured by CellTiter Glo (Promega).
(§6) The effect of these peptides was tested using CNGB3-positive A431 cells, which was generated by transfecting A431 cells with CNGB3-Myc gene driving lenti viral vector. […] The assays used detected no difference between these two peptides. The TUNEL assay was of CNGB3-MYC expressing A431 cells after culturing in medium containing KLA-HLA-z13 for 24 hours.

[10] = tested on: CNGB3-MYC expressing A431 cells; assay: TUNEL assay with KLA-HLA hybrid z13 peptides; type: cell-based, human; conditions: 24 hours in medium containing peptide
Experimental: as §6

FITC-z13: synthetic fluorescence-tagged z13 peptide whose amino-terminus was conjugated ({FITC}-VRRADNRPG)
binding of FITC-tagged z13 peptide to A431 cells [1]: did not show fluorescence
binding of FITC-tagged z13 peptide to A431 cells ([1]; listed as z13 peptide with an N-terminal FITC-tag): not
binding to vector-transfected control HeLa cells [2]: did not bind
binding to CNGB3-MYC-expressing HeLa cells [3]: bound to sites marked by MYC-epitope expression
binding of FITC-tagged z13 peptide to Ishikawa cells ([4]; 1 μg/ml, 37° C. 15 min): bound

HLAHLAHHLAHLAHHLAHVRRADNRPG (HLAHLAHHLAHLAHHLAHVRRAXNXPG; (23)..(23) Xaa can be any naturally occurring amino acid; (25)..(25) Xaa can be any naturally occurring amino acid) [HLAH-z13]
endosome-escaping activity (release of biotin-z13 from endosomes to cytoplasm) [5]: promotes endosome-escaping activity
high concentration at which cell viability was affected (otherwise not affected) [6]: 50 µg/mL

(KLAKLAK)2 (KLAKLAKKLAKLAK) [mitochondriotoxic pro-apoptotic peptide (PAP)]
mammalian cell cytotoxicity of the peptide by itself [7]: low mammalian cell cytotoxicity

Qdot-cys-z13: synthetic cys-z13 peptide CVRRADNRPG conjugated to fluorescent nanocrystal Qdot605 (also: conjugated to Qdot605 nanocrystal)
binding of Qdot-conjugated peptide to A431 cells [1]: not
fluorescence/binding of Qdot-conjugated peptide on Ishikawa cells ([4]; 37° C. 15 min): strong fluorescence
fluorescence/binding of Qdot-conjugated peptide on Ishikawa cells ([4]; 37° C. 15 min, listed as Qdot-z13): bound

KLAKLAKKLAKLAKKLAKVRRADNRPG [dKLAK-z13]
high concentration at which cell viability was affected (otherwise not affected) [6]: 200 µg/mL
induction of apoptosis in CNGB3-expressing cells [8]: apoptosis was not induced; also recorded: did not induce apoptosis

KLAKLAKKLAKLAKHLAHLAHHLAHLAHVRRADNRPG [KLA-HLA-z13]
apoptosis / loss of viability of CNGB3-positive A431 cells [9]: induced apoptosis
frequency of TUNEL-positive cells [10]: dose-dependent increase in the frequency of TUNEL-positive cells

HLAHLAHHLAHLAHKLAKLAKKLAKLAKVRRADNRPG [HLA-KLA-z13]
apoptosis / loss of viability of CNGB3-positive A431 cells [9]: induced apoptosis

VRRADNRPG [z13]
cellular localization of z13 in Ishikawa cells ([4]; punctuate cytoplasmic staining pattern in micrographs): internalized to endosomes
cell viability [6]: not affected
